Assay results as given in US20020110808A1, “Toxicant-induced differential gene expression” (priority 2000, published 2002).
Read-outs that look alike come from different tables or passages of the source.

What was measured:
HepG2 cells [1] = experiment: BrdU incorporation cell proliferation assay; type: cell-based
Protocol: HepG2 cells (see e.g., Aden et al., Nature 282:615-616 (1979)) (ATCC HB-8065) were maintained in DMEM/F-12 medium with 10% fetal bovine serum and 1% antibiotic/antimycotic. For routine culturing and mRNA preps, cells were grown in 75 cm^2 flasks and split every 4-5 days. For plate assays, cells were plated in 96-well microtiter plates at 1×10^5 cells per well in 100 μl of growth medium.
Depending on the desired exposure time, cell treatments began 3 or 4 days after splitting or plating. At this time, the cells were near or at confluency. […] Cell treatments were at 37° C.
Uptake of 5-bromo-2′-deoxyuridine (BrdU) was measured using the Cell Proliferation ELISA kit from Boehringer-Mannheim (Indianapolis, Ind.).
Cell proliferation assays based on measurement of BrdU incorporation were performed according to the manufacturer's instructions (Boehringer Mannheim “Cell Proliferation ELISA Kit”).

HepG2 cells [2] = experiment: cDNA array (GF200) expression profiling; type: cell-based, human; details: for Number of genes with statistically significant (p<0.05) change in expression in three or more adjacent time points: 1 to 24 hr time course
Protocol: Cells were grown in DMEM/F12 medium with 10% fetal bovine serum in tissue culture flasks for 3 days following splitting, at which time they were at or near confluency. […] For each treated sample, an untreated control flask was set up with the same medium. Following the treatment period, mRNA was isolated by affinity purification on oligo(dT) cellulose resin using the Poly(A) Pure mRNA isolation kit from Ambion. RNA quality was assessed by agarose gel electrophoresis, and yields were determined by absorbance at 260 nm.
Radiolabeled cDNA for array hybridizations were prepared as follows. To a solution of 2 μg of RNA in 8 μl DEPC-treated water was added 2 μl of 1 μg/μl oligo(dT) (10-20 mer mixture, Research Genetics). After incubation for 10 min at 70° C., the solution was chilled on ice for 2 min, and then added to 6 μl of 5× first strand buffer (250 mM Tris-HCl (pH 8.3), 375 mM KCl, 15 mM MgCl2; Gibco-BRL), 1 μl of 0.1M DTT, 1.5 μl dNTP mix (20 mM each dATP, dGTP and dTTP), 10 μl of 10 mCi/ml [α-^33P]dCTP (1000 Ci/mmol, Amersham), and 1.5 μl of 200 U/μl reverse transcriptase (Superscript II, Gibco-BRL). Following a 90 min incubation at 37° C., cDNA targets were purified by passage through G-50 Sephadex spin columns (Pharmacia) or Bio-Spin 6 columns (BioRad).
GF200 cDNA arrays (Research Genetics) were washed in 0.5% boiling SDS for 5 min and prehybridized for 3 hrs at 42° C. in 5 ml MicroHyb solution (Research Genetics) containing 5 μl of 1 μg/ml poly(dA) (Research Genetics) and 5 μl of 1 μg/ml human Cot-I DNA (Gibco-BRL) that was denatured for 3 min at 100° C. prior to use. Labeled target nucleic acids, boiled for 3 min, were added directly, and hybridization was allowed to proceed for 16-18 hr at 42° C. in roller bottles in hybridization ovens. Arrays were washed twice in 2× SSC, 1% SDS at room temperature for 2 min, and then twice in 0.5× SSC, 1% SDS at 65° C. for 20 min. Arrays were exposed to storage phosphor screens for 3 days and scanned using a phosphorimager (Molecular Dynamics). Arrays were stripped for reuse by placing in boiling 0.5% SDS and then incubating for 1.5 hr with shaking at room temperature, allowing to solution to cool. After stripping, arrays were exposed to storage phosphor screens overnight to confirm loss of signal.
Spot intensities were determined using Pathways software (Research Genetics). Data from quadruplicate sets of hybridizations were normalized by local regression using NLR software (Tom Kepler, North Carolina State University). Cluster analysis was carried out using the Clustan Graphics software package from Clustan Limited (Edinburgh).

HepG2 cells [3] = experiment: Quantitative RT-PCR (TaqMan); type: cell-based, human
Protocol: Primers and probes were designed using Primer Express software (Perkin-Elmer). TaqMan probes (Perkin-Elmer) were synthesized with reporter dye 6FAM at the 5′ end and quencher TAMRA at the 3′ end. RNA template concentrations were determined by absorbance at 260 nm. Reactions were performed as described […], using 2.5 ng RNA, 300 nM each PCR primer, and 150 nM Taqman probes. Control reactions were set up with reverse transcriptase or template omitted. Reactions were run on an ABI 7700 instrument (Perkin-Elmer) using the following cycling conditions: reverse transcription at 48° C. for 30 min; inactivation of reverse transcriptase at 95° C. for 10 min; 40 cycles of denaturation at 94° C. for 15 sec and extension at 60° C. for 1 min. Changes in expression were calculated from the displacement of the amplification curve in the treated sample relative to the control.

[4] = 20 mM acetaminophen, 16 mM caffeine, 100 mM thioacetamide

Compound | inhibition at 20000 µM (HepG2 cells [1]; Homo sapiens, HepG2, 24 h; read-out: Inhibition of BrdU uptake (cell proliferation)) | IC50 (HepG2 cells [1]; Homo sapiens, HepG2; read-out: IC50, BrdU incorporation in HepG2 cells) | Number of genes with statistically significant (p<0.05) change in expression in three or more adjacent time points (HepG2 cells [2]; [4]) | LDH-A down-regulation on arrays (HepG2 cells [2]; 24 hr, 20 mM acetaminophen, wash 0.5× SSC at 65° C.) | Metallothionein-1G induction on arrays (HepG2 cells [2]; acetaminophen, 24-hr time point) | TTF-1 interacting peptide 21 up-regulation on arrays (HepG2 cells [2]; acetaminophen, 12 hr) | TTF-1 interacting peptide 21 down-regulation by RT-PCR (HepG2 cells [3]; acetaminophen, 12 hr) | IC50 (HepG2 cells [1]; Homo sapiens, HepG2, read-out: IC50, BrdU incorporation in HepG2 cells) | Metallothionein-1H induction (HepG2 cells [2]) | Global differential gene expression (rms) over time (HepG2 cells [2]; 1 to 24 hr, 20 mM acetaminophen, 16 mM caffeine, 100 mM thioacetamide) | Expression ratio (treated/control), Array: MT-1B (H72722) (HepG2 cells [2]; Thioacetamide (24 hr)) | Expression ratio (treated/control), Array: MT-1G (H53340) (HepG2 cells [2]; Thioacetamide (24 hr)) | Expression ratio (treated/control), Array: MT-1H (H77766) (HepG2 cells [2]; Thioacetamide (24 hr)) | Expression ratio (treated/control), Array: MT-1L (N80129) (HepG2 cells [2]; Thioacetamide (24 hr)) | Expression ratio (treated/control), Array: MT-2 (R16596) (HepG2 cells [2]; Thioacetamide (24 hr)) | Expression ratio (treated/control), RT-PCR: MT-1G (H53340) (HepG2 cells [3]; Thioacetamide (24 hr)) | Expression ratio (treated/control), RT-PCR: MT-2 (R16596) (HepG2 cells [3]; Thioacetamide (24 hr)) | Expression ratio (treated/control), RT-PCR: MT-1H (H77766) (HepG2 cells [3]; Thioacetamide (24 hr), not detectable in control samples)
CC(=O)Nc1ccc(O)cc1 [acetaminophen] | 67 to 80% | ~5 mM | 258 | 11 fold | 18 fold | 2.6 fold | ~2 fold | – | – | – | – | – | – | – | – | – | – | –
CC(=N)S [thioacetamide] | – | – | 215 | – | – | – | – | 57 mM | strongly induced | a high degree of differential expression is observed both at early and late time points | 15 | 15 | 16 | 14 | 15 | 3.1 | 7.4 | >1000
